Experimental data reported in patent publication US9926319B2, “Pyridyl piperidines” (MERCK PATENT GMBH, priority 2014, dated 2018).

Experiments:
[1] = system: Wnt pathway; assay: Cellular assay for Wnt pathway activity (luciferase reporter cell based assay); settings: 24 h, HEK293 luciferase reporter cell line (ER-DSH, TCF dependent promoter), induced with estrogen (1 μM), read-out: 7df3 IC50
[2] = CLint (intrinsic clearance) assay, microsomal incubation; assay type: in vitro ADME, Human; settings: NADPH, 37° C., up to 30 min; for microsomal CLint at 0.8 μM: human, liver microsomes, pH 7.4, human liver microsomes 0.5 mg/mL protein; for Human Clint: human liver microsomes 0.5 mg/mL protein
Experimental: 2. CLint (Intrinsic Clearance) Assay
A Tecan Genesis workstation (RWS ASY 150/8) was used to perform the microsomal incubations. Analysis was carried out using a Waters ACQUITY UPLC system coupled to an ABSciex API3000 mass spectrometer. Data analysis was performed using Assay Explorer (Symyx).
0.1 M potassium phosphate buffer pH 7.4 containing 1 mM MgCl2
15 mM NADPH in phosphate buffer
5.0 mg protein/mL liver microsomes in phosphate buffer
Each experiment consists of 12 test and 2 reference compounds. The reference compounds are incubated as a cocktail.
Dilution of test compounds was done in 2 steps from a 10 mM DMSO stock solution. First 4 μL stock solution was added to 196 μL of 20% DMSO in potassium phosphate buffer pH 7.4. In a second step 10 μL of the first dilution were added to […] potassium phosphate buffer and 100 μL internal standard solution to a final concentration of 0.8 μM. 100 μL of the final compound dilution were aliquoted into a 96 deep well plate. 12.5 μL liver microsomes were added to each well (0.5 mg/mL final protein concentration) and the samples preincubated for 5 min at 37° C. and 800 rpm agitation.
After the preincubation, 250 μL cold acetonitrile were added to the 0 min samples to prevent a reaction. Following this, 12.5 μL NADPH solution were added to all wells to start the incubation, with the exception of the 0 min and 30 min controls without cofactor, where the NADPH was substituted for phosphate buffer.
The incubations were stopped after 5, 10, 20 and 30 min by adding 250 μL cold acetonitrile to the individual wells.
The quenched samples were then centrifuged at 4000 g for 1 h at 4° C. 100 μL of the supernatant were transferred into 96 well plates for analysis.
The metabolic stability of each compound was determined by measurement of the change in LC-MS/MS peak area over time. Assay Explorer software was used to automatically calculate the slope k of the decline. The intrinsic clearance (CLint) of each compound was then calculated according to the formula: CLint(μL/min/mg protein)=k1000/protein concentration.
CLint is shown for each compound in Table 3 below.

| SMILES | IC50 [1] [µM] | microsomal CLint at 0.8 μM [2] [µL/min/mg] | Human Clint [2] [µL/min/mg] |
| --- | --- | --- | --- |
| O=C1NCCC12CCN(c1c(Cl)cncc1-c1ccc(-c3cnn([C@H]4CCC[C@@H]4O)c3)cc1)CC2 (racemic) [Example 56, 8-(3-Chloro-5-{4-[1-((1S,2S)-2-hydroxy-cyclopentyl)-1H-pyrazol-4-yl]-phenyl}-pyridin-4-yl)-2,8-diaza-spiro[4.5]decan-1-one] | 0.0076 | 44 | – |
| O=C1NCC2(CCN(c3c(Cl)cncc3-c3ccc(-c4cnn([C@H]5CCC[C@@H]5O)c4)cc3)CC2)O1 (racemic) [Example 57, 8-(3-Chloro-5-{4-[1-((1S,2S)-2-hydroxy-cyclopentyl)-1H-pyrazol-4-yl]-phenyl}-pyridin-4-yl)-1-oxa-3,8-diaza-spiro[4.5]decan-2-one] | 0.018 | 32 | – |
| CC1NC(=O)OC12CCN(c1c(Cl)cncc1-c1ccc3c(c1)CS(=O)(=O)N3C)CC2 (racemic) [Example 96, 8-[3-Chloro-5-(1-methyl-2,2-dioxo-2,3-dihydro-1H-2l6-benzo[c]isothiazol-5-yl)-pyridin-4-yl]-4-methyl-1-oxa-3,8-diaza-spiro[4.5]decan-2-one] | 0.0042 | 39 | – |
| CC1NC(=O)OC12CCN(c1c(Cl)cncc1-c1ccc(-c3cnn(C)c3)cc1)CC2 (racemic) [Example 97, 8-{3-Chloro-5-[4-(1-methyl-1H-pyrazol-4-yl)-phenyl]-pyridin-4-yl}-4-methyl-1-oxa-3,8-diaza-spiro[4.5]decan-2-one] | 0.042 | 26 | – |
| Cn1ncc2cc(-c3cncc(Cl)c3N3CCC4(CC3)CC(=O)NC4=O)ccc21 [Example 1, 8-[3-Chloro-5-(1-methyl-1H-indazol-5-yl)-pyridin-4-yl]-2,8-diaza-spiro[4.5]decane-1,3-dione] | 0.0034 | 11 | – |
| Cn1ncc2cc(-c3cncc(Cl)c3N3CCC4(CC3)NC(=O)NC4=O)ccc21 [Example 2, 8-[3-Chloro-5-(1-methyl-1H-indazol-5-yl)-pyridin-4-yl]-1,3,8-triaza-spiro[4.5]decane-2,4-dione] | 0.046 | 15 | – |
| O=C1NCCC12CCN(c1c(Cl)cncc1-c1ccc3oc(=O)[nH]c3c1)CC2 [Example 3, 5-[5-Chloro-4-(1-oxo-2,8-diaza-spiro[4.5]dec-8-yl)-pyridin-3-yl]-3H-benzooxazol-2-one] | 0.0044 | 35 | – |
| Cn1ncc2cc(-c3cncc(Cl)c3N3CCC4(CC3)CNC(=O)O4)ccc21 [Example 4, 8-[3-Chloro-5-(1-methyl-1H-indazol-5-yl)-pyridin-4-yl]-1-oxa-3,8-diaza-spiro[4.5]decan-2-one] | 0.01 | 23 | – |
| CC(C)n1cc(-c2ccc(-c3cncc(Cl)c3N3CCC4(CCNC4=O)CC3)cc2)cn1 [Example 6, 8-{3-Chloro-5-[4-(1-isopropyl-1H-pyrazol-4-yl)-phenyl]-pyridin-4-yl}-2,8-diaza-spiro[4.5]decan-1-one] | 0.0062 | 90 | – |
| O=C1NCC2(CCN(c3c(Cl)cncc3-c3ccc4oc(=O)[nH]c4c3)CC2)O1 [Example 8, 8-[3-Chloro-5-(2-oxo-2,3-dihydro-benzooxazol-5-yl)-pyridin-4-yl]-1-oxa-3,8-diaza-spiro[4.5]decan-2-one] | 0.0097 | 16 | – |
| Cn1ncc2ccc(-c3cncc(Cl)c3N3CCC4(CC3)CNC(=O)O4)cc21 [Example 10, 8-[3-Chloro-5-(1-methyl-1H-indazol-6-yl)-pyridin-4-yl]-1-oxa-3,8-diaza-spiro[4.5]decan-2-one] | 0.028 | 13 | – |
| CN1C(=O)Cc2cc(-c3cncc(Cl)c3N3CCC4(CC3)CNC(=O)O4)ccc21 [Example 11, 8-[3-Chloro-5-(1-methyl-2-oxo-2,3-dihydro-1H-indol-5-yl)-pyridin-4-yl]-1-oxa-3,8-diaza-spiro[4.5]decan-2-one] | 0.033 | < 10 | – |
| O=C1CCc2ccc(-c3cncc(Cl)c3N3CCC4(CCNC4=O)CC3)cc2N1 [Example 12, 7-[5-Chloro-4-(1-oxo-2,8-diaza-spiro[4.5]dec-8-yl)-pyridin-3-yl]-3,4-dihydro-1H-quinolin-2-one] | 0.043 | 27 | – |
| Nc1n[nH]c2cc(-c3cncc(Cl)c3N3CCC4(CC3)CC(=O)NC4=O)ccc12 [Example 14, 8-[3-(3-Amino-1H-indazol-6-yl)-5-chloro-pyridin-4-yl]-2,8-diaza-spiro[4.5]decane-1,3-dione] | 0.018 | < 10 | – |
| O=C1NCC2(CCN(c3c(Cl)cncc3-c3ccc(-c4cnn(CCO)c4)cc3)CC2)O1 [Example 15, 8-(3-Chloro-5-{4-[1-(2-hydroxy-ethyl)-1H-pyrazol-4-yl]-phenyl}-pyridin-4-yl)-1-oxa-3,8-diaza-spiro[4.5]decan-2-one] | 0.017 | < 10 | – |
| Cn1cc(-c2ccc(-c3cncc(Cl)c3N3CCC4(CC3)NC(=O)CNC4=O)cc2)cn1 [Example 17, 9-{3-Chloro-5-[4-(1-methyl-1H-pyrazol-4-yl)-phenyl]-pyridin-4-yl}-1,4,9-triaza-spiro[5.5]undecane-2,5-dione] | 0.011 | – | 11 |
| CC1=NC(=O)C2(CCN(c3c(Cl)cncc3-c3ccc4c(cnn4C)c3)CC2)N1 [Example 19, 8-[3-Chloro-5-(1-methyl-1H-indazol-5-yl)-pyridin-4-yl]-2-methyl-1,3,8-triaza-spiro[4.5]dec-2-en-4-one] | 0.021 | < 10 | – |
| CC1=NC(=O)C2(CCN(c3c(Cl)cncc3-c3ccc(-c4cnn(C)c4)cc3)CC2)N1 [Example 20, 8-{3-Chloro-5-[4-(1-methyl-1H-pyrazol-4-yl)-phenyl]-pyridin-4-yl}-2-methyl-1,3,8-triaza-spiro[4.5]dec-2-en-4-one] | 0.022 | 24 | – |
| CN1c2ccc(-c3cncc(Cl)c3N3CCC4(CC3)NC(=O)CNC4=O)cc2CS1(=O)=O [Example 21, 9-[3-Chloro-5-(1-methyl-2,2-dioxo-2,3-dihydro-1H-2l6-benzo[c]isothiazol-5-yl)-pyridin-4-yl]-1,4,9-triaza-spiro[5.5]undecane-2,5-dione] | 0.031 | < 10 | – |
| CNC(=O)c1ccc(-c2cncc(Cl)c2N2CCC3(CCNC3=O)CC2)cc1 [Example 22, 4-[5-Chloro-4-(1-oxo-2,8-diaza-spiro[4.5]dec-8-yl)-pyridin-3-yl]-N-methyl-benzamide] | 0.046 | 27 | – |
| COC(=O)Nc1n[nH]c2cc(-c3cncc(Cl)c3N3CCC4(CCNC4=O)CC3)ccc12 [Example 23, {6-[5-Chloro-4-(1-oxo-2,8-diaza-spiro[4.5]dec-8-yl)-pyridin-3-yl]-1H-indazol-3-yl}-carbamic acid methyl ester] | 0.039 | 49 | – |
| CN1C(=O)NC(=O)C12CCN(c1c(Cl)cncc1-c1ccc(-c3cnn(C)c3)cc1)CC2 [Example 49, 8-{3-Chloro-5-[4-(1-methyl-1H-pyrazol-4-yl)-phenyl]-pyridin-4-yl}-1-methyl-1,3,8-triaza-spiro[4.5]decane-2,4-dione] | – | – | 20 |
| CN1c2ccc(-c3cncc(Cl)c3N3CCC4(CC3)C(=O)NN=C4C(F)(F)F)cc2CS1(=O)=O [Example 58, 8-[3-Chloro-5-(1-methyl-2,2-dioxo-2,3-dihydro-1H-2l6-benzo[c]isothiazol-5-yl)-pyridin-4-yl]-4-trifluoromethyl-2,3,8-triaza-spiro[4.5]dec-3-en-1-one] | – | – | 89 |
| Cn1ccc(-c2ccc(-c3cncc(Cl)c3N3CCC4(CCNC4=O)CC3)cc2)n1 [Example 67, 8-{3-Chloro-5-[4-(1-methyl-1H-pyrazol-3-yl)-phenyl]-pyridin-4-yl}-2,8-diaza-spiro[4.5]decan-1-one] | 0.041 | – | – |
| CN1c2ccc(-c3cncc(F)c3N3CCC4(CC3)CNC(=O)O4)cc2CS1(=O)=O [Example 80, 8-[3-Fluoro-5-(1-methyl-2,2-dioxo-2,3-dihydro-1H-2l6-benzo[c]isothiazol-5-yl)-pyridin-4-yl]-1-oxa-3,8-diaza-spiro[4.5]decan-2-one] | – | – | 18 |
| Cn1cc(-c2ccc(-c3cncc(Cl)c3N3CCC4(CC3)CC(=O)NC4=O)cc2)cn1 [Example 86, 8-{3-Chloro-5-[4-(1-methyl-1H-pyrazol-4-yl)-phenyl]-pyridin-4-yl}-2,8-diaza-spiro[4.5]decane-1,3-dione] | 0.0022 | – | – |
| Cn1ncc2cc(-c3cncc(Cl)c3N3CCC4(CCNC4=O)CC3)ccc21 [Example 91, 8-[3-Chloro-5-(1-methyl-1H-indazol-5-yl)-pyridin-4-yl]-2,8-diaza-spiro[4.5]decan-1-one] | 0.0082 | – | – |
